# Experimental data as given in PubChem BioAssay (NCI).
#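 Five compound concentrations were applied to cells in 96-well plates for 48 hours; endpoints were derived by simple linear interpolation of the resulting dose-response curve. Here, GI50 denotes the concentration required for 50% inhibition of growth. TGI is the concentration that stops growth completely.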
# Tests used:
# Experiment in all cases: DTP human tumour cell line panel, 48 h
# [1] = test system: RPMI-8226 leukemia
# [2] = test system: BT-549 breast
# [3] = test system: NCI-H522 lung
# [4] = test system: NCI-H226 lung
# [5] = test system: SK-MEL-2 melanoma
# [6] = test system: MDA-MB-231 breast
# [7] = test system: NCI/ADR-RES ovarian
# [8] = test system: SN12C renal
# [9] = test system: COLO 205 colon
# [10] = test system: IGROV1 ovarian
# [11] = test system: LOX IMVI melanoma
# [12] = test system: HCT-15 colon
# [13] = test system: SF-539 CNS
# [14] = test system: OVCAR-3 ovarian
# [15] = test system: MDA-MB-435
# [16] = test system: CCRF-CEM leukemia
# [17] = test system: T-47D breast
# [18] = test system: EKVX NSCLC
# [19] = test system: HT29 colon
# [20] = test system: SW-620 colon
# [21] = test system: A549 NSCLC
# [22] = test system: SR leukemia
# [23] = test system: UO-31 renal
# [24] = test system: U251 CNS
# [25] = test system: SK-MEL-5 melanoma
# [26] = test system: ACHN renal
# [27] = test system: NCI-H460 lung
# [28] = test system: A498 renal
# [29] = test system: KM12 colon
# [30] = test system: SF-268 CNS
# [31] = test system: HL-60(TB) leukemia
# [32] = test system: HCT-116 colon
# [33] = test system: SF-295 CNS
# [34] = test system: HS 578T breast
# [35] = test system: OVCAR-8 ovarian
# [36] = test system: MCF7 breast
# [37] = test system: OVCAR-5 ovarian
# [38] = test system: OVCAR-4 ovarian
# [39] = test system: SK-OV-3 ovarian
# [40] = test system: M14 melanoma
# [41] = test system: MALME-3M melanoma
# [42] = test system: 786-0 renal
# [43] = test system: PC-3 prostate
# [44] = test system: SNB-75 CNS
# [45] = test system: MOLT-4 leukemia
# [46] = test system: UACC-62 melanoma
# [47] = test system: SK-MEL-28 melanoma
# [48] = test system: NCI-H23 lung
# [49] = test system: SNB-19 CNS
# [50] = test system: HOP-92 NSCLC
# [51] = test system: RXF 393 renal
# [52] = test system: HCC-2998 colon
# [53] = test system: K-562 leukemia
# [54] = test system: UACC-257 melanoma
# [55] = test system: HOP-62 NSCLC
# [56] = test system: TK-10 renal
# [57] = test system: DU-145 prostate
# [58] = test system: CAKI-1 renal
structure (smiles),measurement,setting,value
CCN1CCN(c2cc(C)nc(N(CCCNc3ccnc4cc(Cl)ccc34)Cc3cccs3)n2)CC1,GI50,[1],1570 nM
same,TGI,[1],4.82 µM
same,GI50,[2],1930 nM
same,TGI,[2],5.04 µM
same,GI50,[3],1810 nM
same,TGI,[3],3.81 µM
same,GI50,[4],8.12 µM
same,TGI,[4],31.5 µM
same,GI50,[5],1980 nM
same,TGI,[5],3.92 µM
same,GI50,[6],1400 nM
same,TGI,[6],3.56 µM
same,GI50,[7],2960 nM
same,TGI,[7],16.8 µM
same,GI50,[8],3350 nM
same,TGI,[8],14 µM
same,GI50,[9],1570 nM
same,TGI,[9],3.32 µM
same,GI50,[10],2110 nM
same,TGI,[10],6.58 µM
same,GI50,[11],1840 nM
same,TGI,[11],3.59 µM
same,GI50,[12],1330 nM
same,TGI,[12],4.51 µM
same,GI50,[13],1760 nM
same,TGI,[13],3.33 µM
same,GI50,[14],1830 nM
same,TGI,[14],6.03 µM
same,GI50,[15],1590 nM
same,TGI,[15],2950 nM
same,GI50,[16],2700 nM
same,TGI,[16],12.5 µM
same,GI50,[17],2.29 µM
same,TGI,[17],6.89 µM
same,GI50,[18],3.88 µM
same,TGI,[18],16.6 µM
same,GI50,[19],1310 nM
same,TGI,[19],4.33 µM
same,GI50,[20],1590 nM
same,TGI,[20],3.86 µM
same,GI50,[21],3220 nM
same,TGI,[21],14.4 µM
same,GI50,[22],1290 nM
same,TGI,[22],3.23 µM
same,GI50,[23],1330 nM
same,TGI,[23],2880 nM
same,GI50,[24],2220 nM
same,TGI,[24],7.05 µM
same,GI50,[25],1720 nM
same,TGI,[25],3.11 µM
same,GI50,[26],3.38 µM
same,TGI,[26],9.22 µM
same,GI50,[27],2470 nM
same,TGI,[27],7.84 µM
same,GI50,[28],2410 nM
same,TGI,[28],7.13 µM
same,GI50,[29],2620 nM
same,TGI,[29],12.7 µM
same,GI50,[30],2030 nM
same,TGI,[30],6.62 µM
same,GI50,[31],2140 nM
same,TGI,[31],4.15 µM
same,GI50,[32],1320 nM
same,TGI,[32],10.4 µM
same,GI50,[33],1840 nM
same,TGI,[33],3.73 µM
same,GI50,[34],2.02 µM
same,TGI,[34],5.02 µM
same,GI50,[35],3060 nM
same,TGI,[35],10.9 µM
same,GI50,[36],2220 nM
same,TGI,[36],10.3 µM
same,GI50,[37],3.97 µM
same,TGI,[37],15.3 µM
same,GI50,[38],2110 nM
same,TGI,[38],12.7 µM
same,GI50,[39],3.29 µM
same,TGI,[39],10.5 µM
same,GI50,[40],1800 nM
same,TGI,[40],3.51 µM
same,GI50,[41],2010 nM
same,TGI,[41],3.7 µM
same,GI50,[42],1560 nM
same,TGI,[42],3.58 µM
same,GI50,[43],3.11 µM
same,TGI,[43],15.9 µM
same,GI50,[44],1500 nM
same,TGI,[44],3.2 µM
same,GI50,[45],1620 nM
same,TGI,[45],6.12 µM
same,GI50,[46],1930 nM
same,TGI,[46],3.56 µM
same,GI50,[47],1820 nM
same,TGI,[47],3.39 µM
same,GI50,[48],3210 nM
same,TGI,[48],14.3 µM
same,GI50,[49],3.88 µM
same,TGI,[49],13.9 µM
same,GI50,[50],1550 nM
same,TGI,[50],3.79 µM
same,GI50,[51],1450 nM
same,TGI,[51],3.17 µM
same,GI50,[52],1980 nM
same,TGI,[52],4.58 µM
same,GI50,[53],525 nM
same,TGI,[53],2.29 µM
same,GI50,[54],2100 nM
same,TGI,[54],3.94 µM
same,GI50,[55],2790 nM
same,TGI,[55],15.2 µM
same,GI50,[56],1820 nM
same,TGI,[56],4.09 µM
COc1cc(/C=C/C(=O)c2cc(OC)c(OC)c(OC)c2)ccc1Oc1nc2c(c(=O)n(C)c(=O)n2C)n1C,GI50,[1],1200 nM
same,TGI,[1],4.91 µM
same,GI50,[2],1560 nM
same,TGI,[2],3.02 µM
same,GI50,[3],1430 nM
same,TGI,[3],2.81 µM
same,GI50,[4],2.98 µM
same,TGI,[4],8.43 µM
same,GI50,[5],3350 nM
same,TGI,[5],7.78 µM
same,GI50,[6],2550 nM
same,TGI,[6],20.3 µM
same,GI50,[7],2960 nM
same,TGI,[7],> 100 µM
same,GI50,[8],2240 nM
same,TGI,[8],7.79 µM
same,GI50,[9],1910 nM
same,TGI,[9],3.62 µM
same,GI50,[10],2500 nM
same,TGI,[10],5.35 µM
same,GI50,[11],1140 nM
same,TGI,[11],2.64 µM
same,GI50,[12],2560 nM
same,TGI,[12],> 100 µM
same,GI50,[13],2730 nM
same,TGI,[13],7.74 µM
same,GI50,[14],2370 nM
same,TGI,[14],4.88 µM
same,GI50,[16],1970 nM
same,TGI,[16],6.48 µM
same,GI50,[17],4.39 µM
same,TGI,[17],65.4 µM
same,GI50,[18],26.5 µM
same,TGI,[18],> 100 µM
same,GI50,[19],1870 nM
same,TGI,[19],3.9 µM
same,GI50,[20],1600 nM
same,TGI,[20],3.46 µM
same,GI50,[21],2200 nM
same,TGI,[21],6.52 µM
same,GI50,[22],1210 nM
same,TGI,[22],4.89 µM
same,GI50,[23],1600 nM
same,TGI,[23],3100 nM
same,GI50,[24],1280 nM
same,TGI,[24],2.6 µM
same,GI50,[25],1750 nM
same,TGI,[25],3.33 µM
same,GI50,[57],3.92 µM
same,TGI,[57],15.5 µM
same,GI50,[26],2.93 µM
same,TGI,[26],8.06 µM
same,GI50,[27],2240 nM
same,TGI,[27],6.37 µM
same,GI50,[28],2510 nM
same,TGI,[28],10.2 µM
same,GI50,[29],1620 nM
same,TGI,[29],3.16 µM
same,GI50,[30],3290 nM
same,TGI,[30],10.2 µM
same,GI50,[31],2170 nM
same,TGI,[31],5.32 µM
same,GI50,[32],684 nM
same,TGI,[32],2.06 µM
same,GI50,[33],2650 nM
same,TGI,[33],13 µM
same,GI50,[34],7.93 µM
same,TGI,[34],> 100 µM
same,GI50,[58],2220 nM
same,TGI,[58],7.92 µM
same,GI50,[35],1730 nM
same,TGI,[35],5.2 µM
same,GI50,[36],2200 nM
same,TGI,[36],27.6 µM
same,GI50,[37],2.9 µM
same,TGI,[37],7.41 µM
same,GI50,[38],2490 nM
same,TGI,[38],> 100 µM
same,GI50,[39],3.73 µM
same,TGI,[39],35.5 µM
same,GI50,[40],1870 nM
same,TGI,[40],4.55 µM
same,GI50,[42],1630 nM
same,TGI,[42],3.26 µM
same,GI50,[44],1770 nM
same,TGI,[44],7.81 µM
same,GI50,[45],2290 nM
same,TGI,[45],6.34 µM
same,GI50,[46],1810 nM
same,TGI,[46],3.61 µM
same,GI50,[47],2570 nM
same,TGI,[47],7.03 µM
same,GI50,[48],1850 nM
same,TGI,[48],4.27 µM
same,GI50,[49],2.71 µM
same,TGI,[49],13.5 µM
same,GI50,[50],2090 nM
same,TGI,[50],5.84 µM
same,GI50,[51],2030 nM
same,TGI,[51],3.65 µM
same,GI50,[52],1840 nM
same,TGI,[52],3.35 µM
same,GI50,[53],2290 nM
same,TGI,[53],8.23 µM
same,GI50,[54],2050 nM
same,TGI,[54],4.63 µM
same,GI50,[55],2630 nM
same,TGI,[55],5.89 µM
